Experimental findings from patent publication US7368287B2, “Use of L-α-lysophosphatidylcholine to obtain the differentiation of monocytes into mature dendritic cells in vitro” (Biomerieux, priority 2002, dated 2008) are described below.

The test system of test [1] is BALB/c mice. The test is described as follows: Proliferation of HEL-specific T cells of popliteal lymph nodes after immunization (thymidine incorporation). The class given is in vivo, mouse. As to the method:
LPC stimulates the T response specific for a co-injected soluble antigen. LPC dissolved in PBS (250 or 500 nmol in 50 μl) is mixed with hen egg lysozyme (HEL, 50 μg) and this mixture is injected into the plantar foot pad of BALB/c mice. After 7 days, the popliteal lymph nodes are removed and their cells are restimulated in triplicate in vitro, in a culture medium containing 30 μM of HEL antigen, or in the absence of HEL. After 3 days, the T lymphocyte proliferation is measured by incorporation of triturated thymidine for 16 h.
INTRALIPID® blocks the inflammation and the immune response induced by LPC, in vivo. In this example, 3 batches of BALB/c mice are immunized against the hen egg lysozyme (HEL) antigen by injection of 50 μl of solution into the plantar foot pad. The “HEL” control batch receives 50 μg of HEL, the “HEL+Intralipid” batch receives a mixture of INTRALIPID® (45 μl) and of 50 μg of HEL (5 μl of a solution at 10 mg/ml). The “HEL+LPC” batch receives 50 μg of HEL with 350 nmol of LPC dissolved in PBS. The “HEL+LPC+Intralipid” batch receives 50 μg of HEL mixed with 350 nmol of LPC dissolved in 45 μl of INTRALIPID®. After 24 hours, the thickness of the foot pads is measured using a micrometer, and compared with the measurement taken before injection. The difference in thickness is proportional to the intensity of the inflammation.
Seven days after the injection, the popliteal lymph nodes are removed and their cells are restimulated in vitro in triplicate, in a culture medium containing 10 μM of HEL or in the absence of HEL. After 3 days, the proliferation of HEL-specific T lymphocytes is measured by incorporation of triturated thymidine for 16 h.
(In general: Dividing cells build labelled thymidine or BrdU into new DNA.)

The subject of test [2] is BALB/c mice. The test is described as follows: Migration of skin dendritic cells to draining lymph nodes (FITC uptake). The class given is in vivo, mouse. The following applies: auricular and maxillary lymph nodes after 24 h; LPC 0.1 M on ear skin 10 minutes before FITC 1.5%. As to the method: This fluorescent label is taken up by the dendritic cells of the skin. After 24 h, the auricular and maxillary lymph nodes are removed and the cells are placed in suspension. The cell suspension is enriched in dendritic cells by metrizamide (Sigma) gradient centrifugation. The cells are labeled with an antibody (Pharmingen) which recognizes Major Histocompatibility Complex (MHC) […] molecules and analysis by flow cytometry makes it possible to quantify the percentage of large cells (dendritic cells) expressing the MHC class II molecules and containing FITC. These cells are presenting cells which have taken up the FITC in the periphery and have migrated to the lymph nodes.

Test [3] has as its system PAF receptor. The test is described as follows: CD86 expression in presence of PAF or of the PAF antagonist BN52021. The settings on record: differentiation induced by oxidized LDLs; BN52021 added on 5th day. The class given is cell-based, human. As to the method:
The phenotype of the “control” and “LPC” cells is analyzed by flow cytometry on a FACSCalibur (Becton Dickinson, Francklin Lakes, N.J., USA) using FITC (fluorosceine isothiocyanate)-conjugated anti-CD14, anti-HLA-DR and anti-CD80 and PE (phycoerythrin)-conjugated anti-CD1a, anti-CD83, anti-CD86 and anti-CD40 (Beckman Coulter). According to the state of the art, monocytes preferentially have a CD14+ CD1a− phenotype, immature dendritic cells preferentially have a CD14− CD1a+CD86− phenotype, and mature dendritic cells preferentially have a CD14− CD1a intermediate—CD86+ phenotype.
Thus, a solution of PAF (Sigma, 5 μM) was added to the culture medium on the 5th day of monocyte differentiation. The expression of CD86 by the “control” cells and by the “LPC” cells, obtained in the presence or in the absence of PAF, was analyzed according to the protocol described in example 2, and the results are given in table 9.
Thus, a solution of the PAF antagonist BN52021 (Biomol, Plymouth Meeting, USA, 100 μM) was added to the culture medium on the 5th day of monocyte differentiation. The expression of CD86 by the “control” and “LPC” cells, obtained in the presence or in the absence of BN52021, was analyzed according to the protocol described in example 2, and the results are given in table 10.

The test system of test [4] is PPARδ. The test is described as follows: PPAR binding activity by gel shift on nuclear proteins of treated monocytes. The following applies: Table 7; ciglitizone 50 μM 15 minutes before LPC 40 μM for 2 hours; control = 100%. The class given is cell-based, human. As to the method: (§1) Next, the inventors investigated the transcription factors involved in the maturation process induced by LPC. In order to determine whether PPARs are involved in the LPC-induced maturation, the ability of the two transcription factors PPARγ and PPARδ to bind was analyzed using the gel shift technique. 3 isotypes of PPAR nuclear receptors (peroxisome proliferator-activated receptor) exist: α, γ and δ. PPARγs are the targets for molecules of the thiazolidinedione class, such as ciglitizone, used in the treatment of type II diabetes. PPARδs have a broader expression and can be repressors of PPARγs. The monocytes undergoing differentiation were incubated for two hours with a solution of LPC (40 μM) (“LPC” cells). “Control” cells are also obtained in the absence of LPC in the culture medium. After having harvested the cells, the nuclear proteins were extracted with the Nuclear extract Kit (Sigma). The nuclear proteins were then brought into contact with a ratioactively labeled probe containing a response element recognized by PPARs. […] The PPAR binding activity was determined by measuring the intensity of these bands. These activities are expressed as a percentage with respect to the “control” cells. […]
(§2) The activity of the PPARγ and PPARδ transcription factors was measured in these cells by the gel shift technique, as described above.
(§3) INTRALIPID® regulates PPARs in vitro. […] The cells were harvested after 1 h, 2 h or 8 h of incubation with INTRALIPID®, the nuclear proteins were extracted and the activity of PPARγ and PPARδ was determined as described in example 6.
(§4) Secondly, a solution of INTRALIPID® (50 μg/ml of phospholipids) was added to the culture medium on the 5th day of monocyte differentiation, 15 minutes before the addition of a solution of LPC (40 μM) (“LPC+Intralipid” cells). […] The cells were harvested after 2 h of incubation, the nuclear proteins were extracted and the activity of PPARγ and PPARδ was determined as described in example 6.
On the technique in general: A gel shift assay detects complexes by their altered migration in electrophoresis.

For test [5], the target named is T1, PPARγ (Homo sapiens, UniProt P37231).
T1 construct: After having harvested the cells, the nuclear proteins were extracted with the Nuclear extract Kit (Sigma); endogenous in cells; host or cells: monocytes undergoing differentiation into dendritic cells (nuclear extract)
T1 sequence (P37231 1-505): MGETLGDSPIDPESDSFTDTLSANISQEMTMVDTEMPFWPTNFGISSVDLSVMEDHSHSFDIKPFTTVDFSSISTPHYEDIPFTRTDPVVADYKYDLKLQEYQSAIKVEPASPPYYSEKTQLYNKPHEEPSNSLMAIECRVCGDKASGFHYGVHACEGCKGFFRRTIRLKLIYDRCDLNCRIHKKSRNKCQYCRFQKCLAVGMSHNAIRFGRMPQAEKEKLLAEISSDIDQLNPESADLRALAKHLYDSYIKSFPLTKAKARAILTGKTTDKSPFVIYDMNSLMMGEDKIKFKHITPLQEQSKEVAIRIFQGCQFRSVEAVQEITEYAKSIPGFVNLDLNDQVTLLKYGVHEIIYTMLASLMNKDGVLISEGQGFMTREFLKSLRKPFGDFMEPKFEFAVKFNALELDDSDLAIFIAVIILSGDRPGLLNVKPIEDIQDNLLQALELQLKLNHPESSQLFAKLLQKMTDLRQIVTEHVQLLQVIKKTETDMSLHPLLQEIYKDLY
The description is as above. The class given is cell-based. The settings on record: Table 7; ciglitizone 50 μM 15 minutes before LPC 40 μM for 2 hours; control = 100%. As to the method: as §1, §2, §3, §4

Where [6] appears, read: Table 18, HEL 50 μg, LPC 350 nmol, Intralipid 45 μl, seven days after injection.

“HEL: hen egg lysozyme, soluble antigen; antigen-only group”: the “Restimulation with HEL (30 μM)” value in test [1] (Table 13, immunization with HEL 50 μg alone) is listed as 5370 ± 1983 CPM. For the same molecule, the “Proliferation in the absence of HEL” value in test [1] (Table 13, immunization with HEL 50 μg alone, day 7 lymph node cells) is listed as 1315 ± 275 CPM. In test [1] (setting [6]), the “Proliferation in the absence of HEL” value was 370 ± 212 cpm and the “Restimulation with HEL (10 μM)” value turned out to be 738 ± 408 cpm.
`O=C1OC2(c3ccc(O)cc3Oc3cc(O)ccc32)c2ccc(N=C=S)cc21` [FITC]: the “FITC+ dendritic cells” value in test [2] is recorded as 7.1 ± 1.7%.
In the case of `CC1C(=O)OC2C(O)C34C5CC(C(C)(C)C)C36C(OC(=O)C6O)OC4(C(=O)O5)C12O` (centres unmarked) [BN52021, reference compound], the “Inhibition of the action of the oxidized LDLs” value in test [3] is on record as 100%.
For `CC1(COc2ccc(CC3SC(=O)NC3=O)cc2)CCCCC1` (centres unmarked) [Ciglitizone, reference compound], the PPARδ binding activity in test [4] stood at 106%. The PPARγ binding activity in test [5] is 237%.
